In patent US20220265656A1, “COMBINATION THERAPIES WITH IRE1 SMALL MOLECULE INHIBITORS” (Cornell University, priority 2019, published 2022):
Structures can show the parent of a compound that is named as a salt.

Key:
IRE1a [1] = biological target: T1, IRE1a (Homo sapiens, UniProt O75460); test: IRE1a Endoribonuclease Nanoluciferase Assay in 293T cells; type: cell-based; parameters: endogenous in cells; host or cells: 293T cells; conditions: XBP1 luciferase reporter in 293T cells, ER stressor
Method: Compounds disclosed herein were assessed for disruption of IRE1 signaling using a IRE1a Endoribonuclease Nanoluciferase Assay. Briefly, 2.5×10^6 293T cells were seeded in a 10 cm^2 tissue culture plate. About 24 hours later, the cells were transfected with Effectene. In a 15 mL tube, the following was added: 2 ug XBP1 luciferase reporter plasmid (PGK-Luc2-P2A-XBP1u-Nanoluciferase-PEST); 300 ul EC buffer; and 16 ul Enhancer, followed by incubation at room temp for 5 minutes. Next, 60 ul Effectene (Qiagen 301427) was added, followed by incubation at room temperature for 10 minutes, 2.6 mL cDMEM media was added. Old media was aspirated from the cells, followed by addition of 7 mL fresh media. Full transfection mixture was added dropwise to cells. Cells were incubated for 6 hours, followed by trypsinization, centrifugation and resuspension in 11 mL fresh cDMEM media, 100 uL of cells were plated per a well in a 96 well plate. A day later, ER stressors of choice +/−inhibitors were added. To harvest, media was aspirated from cells completely, then 50 uL 1× passive lysis buffer (Promega: E1941) was added per well and put on shaker (300 rpm) for 30 minutes at room temperature. Cells were centrifuged, and 15 uL sample per well was added to a new, opaque white 384 well plate (Corning 3570), 15 uL OneGlo (nanoluciferase kit, Promega N1630) was added. Plates were spun down, placed on shaker (300 rpm) for 10 minutes. Plates were read on luminometer, 1000 ms integration time per well, 15 uL Stop and Glo (nanoluciferase kit) was added. Plates were spun down, placed on shaker (300 rpm) for 10 minutes. Plates were read on luminometer, 1000 ms second integration time per well. Recordings are provided below in Table 4.

IRE1a [2] = biological target: T1, IRE1a; test: In vitro FRET assay (IRE1a cleavage of XBP1 RNA probe); type: biochemical; parameters: purchased SignalChem; conditions: 2 nM IRE1a
Method: In vitro FRET assay was performed to evaluate the ability of select compounds to inhibit IRE1, the results of which are summarized in Table 3. To perform the in vitro FRET assay, 1× complete assay buffer (CAB; […], 50 mM sodium citrate pH 7.15, 1 mM magnesium acetate, 0.02% tween 20) was used to dilute SignalChem IRE1a protein to a final concentration of 2 nM. Selected compounds were serially diluted with DMSO in a non-binding black 384-well plate for a total of 15 ul in each well, 2 ul of the serially diluted compound or DMSO control were then added to new wells containing 98 ul of 1×CAB, for a total volume of 100 ul, 10 ul of which were then transferred to wells of a new plate, 5 ul of the diluted IRE1a was then added to each well, 5 ul of a […] XBP1 RNA probe was then added to each well. Fluorescence was then read over 30 minutes in kinetic mode (485/515 nm).
Two RNA probes were used, XBP1 wildtype (SEQ ID NO: 2) which is able to be spliced by active IRE1a or XBP1 mutant (SEQ ID NO: 3) which is unable to be spliced. Each probe contained a 5′ 6-FAM modification and a 3′ IOWA Black FQ modification. […]

[3] = Metabolic assays of N,N-dimethyl compounds; type: in vitro ADME; conditions: data not shown
IRE1a/XBP1 pathway = test: Inhibition of endogenous XBP1 splicing in 293T cells with tunicamycin; type: cell-based, human
Method: Gene expression was evaluated by quantitative PCR for XBP1s and total XBP1 transcripts using the 2^(−ΔCT) method for calculating normalized gene expression. Gene expression levels were normalized to ACTB transcripts. XBP1 splicing was calculated as actin-normalized XBP1s expression divided by actin-normalized total XBP1 expression.

[4] = tested on: IRE1a-dependent XBP1 splicing; test: Inhibition of IRE1a-dependent XBP1 splicing in ovarian cancer cells in vivo; parameters: species or system mouse; conditions: mice with metastatic ovarian cancer, single oral dose 45 mg/kg, 24 hours
Method: Mice (n=3) with established metastatic ovarian cancer were orally gavaged with 45 mg/kg vehicle control or inhibitor dissolved in H2O. The inhibitor was Compound C. Compound C is 2-chloro-N-(5-(2-(((1r,4r)-4-(dimethylamino)cyclohexyl)amino)-8-ethylquinazolin-6-yl)-6-methylpyridin-2-yl)benzenesulfonamide, Compound 91, described herein. After 24 hours, mice were euthanized, ascites-resident cells were extracted and tumor cells, dendritic cells (DCs), and CD4+ T cells were isolated by FACS. The samples were used for subsequent RT-qPCR analysis of beta-actin, XBP1s and total XBP1. Gene expression was evaluated by quantitative PCR for XBP1s and total XBP1 transcripts using the 2^(−ΔCT) method for calculating normalized gene expression. Gene expression levels were normalized to Actb transcripts. XBP1 splicing is calculated as XBP1s expression divided by total XBP1 expression. A single oral dose of Compound C suppressed IRE1a-dependent XBP1 splicing in tumor cells and relevant immune cells in vivo over 24 hours, FIG. 7.
Mice (n=3) with established metastatic ovarian cancer were orally gavaged with 45 mg/kg vehicle control or inhibitor dissolved in H2O. […] Gene expression was evaluated by quantitative PCR for XBP1s and total XBP1 transcripts using the 2^(−ΔCT) method for calculating normalized gene expression. […] XBP1 splicing is calculated as XBP1s expression divided by total XBP1 expression. […]

[5] = tested on: IRE1a-mediated XBP1 splicing; test: Target engagement in pancreas and salivary gland (XBP1 splicing RT-qPCR); type: in vivo, mouse; conditions: mice, 30 mg/kg oral gavage, 6 hours, compared to control and Compound B
Method: Mice (n=3 per group) were orally gavaged with 30 mg/kg vehicle control or IRE1 inhibitors dissolved in H2O. After 6 hours, mice were euthanized and pancreas and salivary gland tissues were isolated, snap frozen on dry ice, and used for subsequent RT-qPCR analysis of beta-actin, XBP1s and total XBP1. Gene expression was evaluated by quantitative PCR for XBP1s and total XBP1 transcripts using the 2^(−ΔCT) method for calculating normalized gene expression. Gene expression levels were normalized to Actb transcripts. XBP1 splicing is calculated as XBP1s expression divided by total XBP1 expression.

in vivo = conditions: mouse
[6] = Bioavailability assay (pharmacokinetic study); conditions: mouse; IV 1 mg/kg, PO 10 or 30 mg/kg

T1 sequence (O75460 19-977): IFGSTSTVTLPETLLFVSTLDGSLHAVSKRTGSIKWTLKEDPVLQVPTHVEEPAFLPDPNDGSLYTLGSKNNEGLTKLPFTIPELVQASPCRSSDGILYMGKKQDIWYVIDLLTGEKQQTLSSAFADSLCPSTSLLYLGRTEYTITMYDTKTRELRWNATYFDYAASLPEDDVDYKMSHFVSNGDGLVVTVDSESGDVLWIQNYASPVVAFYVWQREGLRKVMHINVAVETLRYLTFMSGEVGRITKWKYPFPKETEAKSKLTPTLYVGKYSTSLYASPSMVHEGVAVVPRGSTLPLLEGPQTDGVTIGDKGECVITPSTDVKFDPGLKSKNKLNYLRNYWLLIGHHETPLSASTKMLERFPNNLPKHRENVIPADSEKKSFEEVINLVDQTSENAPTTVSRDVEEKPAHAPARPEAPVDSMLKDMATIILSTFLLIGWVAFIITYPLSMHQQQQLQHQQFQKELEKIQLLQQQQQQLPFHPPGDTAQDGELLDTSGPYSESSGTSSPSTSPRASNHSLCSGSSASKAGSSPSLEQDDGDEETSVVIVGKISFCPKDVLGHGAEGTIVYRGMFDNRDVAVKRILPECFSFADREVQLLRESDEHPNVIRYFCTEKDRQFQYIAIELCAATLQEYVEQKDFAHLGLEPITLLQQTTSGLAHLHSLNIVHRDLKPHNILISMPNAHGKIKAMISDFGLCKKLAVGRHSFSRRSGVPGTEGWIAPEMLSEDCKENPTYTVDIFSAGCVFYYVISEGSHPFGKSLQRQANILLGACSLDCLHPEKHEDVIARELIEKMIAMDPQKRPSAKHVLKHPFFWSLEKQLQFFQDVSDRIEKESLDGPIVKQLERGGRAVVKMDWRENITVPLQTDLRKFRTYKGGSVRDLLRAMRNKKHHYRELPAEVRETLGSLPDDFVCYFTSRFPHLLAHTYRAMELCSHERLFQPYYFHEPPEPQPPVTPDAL

Work on `COc1nc(NS(=O)(=O)c2ccccc2Cl)c(F)cc1-c1cc(F)c2nc(N[C@H]3CC[C@H](N(C)C)CC3)ncc2c1` [155; Formic Acid Salt] yielded an EC50 (IRE1a [1]) of 50 to 100 nM and an IC50 (IRE1a [2]) of no more than 5 nM.
Work on `CCc1cc(-c2ccc(NS(=O)(=O)c3cccc(F)c3Cl)nc2C)cc2cnc(N[C@H]3CC[C@H](N(C)C)CC3)nc12` [158; Formic Acid Salt] yielded an EC50 (IRE1a [1]) of no more than 5 nM and an IC50 (IRE1a [2]) of no more than 5 nM.
For `CCc1cc(-c2nnc(NS(=O)(=O)c3ccccc3Cl)cc2OC)cc2cnc(N[C@H]3CC[C@H](N(C)C)CC3)nc12` [159; Formic Acid Salt], the EC50 (IRE1a [1]) was 5 to 50 nM and the IC50 (IRE1a [2]) was no more than 5 nM.
With `CCc1cc(-c2ccc(NS(=O)(=O)c3cccc(C)c3Cl)nc2C)cc2cnc(N[C@H]3CC[C@H](N(C)C)CC3)nc12` [160; Formic Acid Salt] the EC50 (IRE1a [1]) was no more than 5 nM and the IC50 (IRE1a [2]) was no more than 5 nM.
Work on `CCc1c(F)c(-c2ccc(NS(=O)(=O)c3ccccc3Cl)nc2C)cc2cnc(N[C@H]3CC[C@H](N(C)C)CC3)nc12` [161; Formic Acid Salt] yielded an EC50 (IRE1a [1]) of no more than 5 nM and an IC50 (IRE1a [2]) of no more than 5 nM.
Compound `CCc1c(F)c(-c2cc(F)c(NS(=O)(=O)c3ccccc3Cl)nc2C)cc2cnc(N[C@H]3CC[C@H](N(C)C)CC3)nc12` [162; Formic Acid Salt] has an EC50 (IRE1a [1]) of no more than 5 nM and an IC50 (IRE1a [2]) of no more than 5 nM.
`CCc1c(F)c(-c2cc(F)c(NS(=O)(=O)c3ccccc3Cl)nc2OC)cc2cnc(N[C@H]3CC[C@H](N(C)C)CC3)nc12` [163; Formic Acid Salt] showed an EC50 (IRE1a [1]) of no more than 5 nM and an IC50 (IRE1a [2]) of no more than 5 nM.
For `CCc1cc(-c2ccc(NS(=O)(=O)c3ccccc3Cl)nc2C)cc2cnc(N[C@H]3CC[C@H](N(C)C)CC3)nc12` [Compound 91, 2-chloro-N-(5-(2-(((1r,4r)-4-(dimethylamino)cyclohexyl)amino)-8-ethylquinazolin-6-yl)-6-methylpyridin-2-yl)benzenesulfonamide], the “metabolism of N,N-dimethyl compounds” value [3] was “removal of the methyl groups” and the “shift in potency between Compound A and Compound C (XBP1 splicing inhibition)” value (IRE1a/XBP1 pathway) was “approximately 3.6 ×”.
For `CCc1cc(-c2ccc(NS(=O)(=O)c3ccccc3Cl)nc2OC)cc2cnc(N[C@H]3CC[C@H](N(C)C)CC3)nc12` [Compound 99, 2-chloro-N-(5-(2-(((1r,4r)-4-(dimethylamino)cyclohexyl)amino)-8-ethylquinazolin-6-yl)-6-methoxypyridin-2-yl)benzenesulfonamide], the “metabolism of N,N-dimethyl compounds” value [3] was “removal of the methyl groups”, the “IRE1a-dependent XBP1 splicing in FACS-isolated ascites cells” value [4] was “suppressed” and the “IRE1a-mediated XBP1 splicing in pancreas and salivary gland” value [5] was “potently suppressed”.
Work on `CCc1cc(-c2ccc(NS(=O)(=O)c3ccccc3Cl)nc2OC)cc2cnc(N[C@H]3CC[C@H](N(C)C)CC3)nc12` [Compound 99] yielded a bioavailability (in vivo) of 70%.
Compound `CCc1cc(-c2ccc(NS(=O)(=O)c3ccccc3Cl)nc2C)cc2cnc(N[C@H]3CC[C@H](N)CC3)nc12` [Compound A, N-(5-(2-(((1r,4r)-4-aminocyclohexyl)amino)-8-ethylquinazolin-6-yl)-6-methylpyridin-2-yl)-2-chlorobenzenesulfonamide] has an oral bioavailability [6] of 4%.
